The text below walks through data of patent publication US6861431B2, “Compounds capable of modulating the activity of multidrug transporters and therapeutic use of the same” (The Board of Trustees of the University of Illinois, priority 2001, dated 2005).

In data set [1] the test system is P-gp. As to the kind of experiment: Rho123 efflux from preloaded ConA cells. The settings on record: ConA cells loaded with Rho123, Rho123-free medium, with vs without Compound 102 (FIGS. 2 and 3). The arrangement: increase of efflux of Rho123 from cells preloaded with the dye: dose or concentration left out as unconfirmed. In kind it is cell-based, mouse. As to the method: Drug accumulation and efflux assay. […] For drug efflux assay, cells after drug incubation were washed thoroughly with PBS, incubated in a drug-free media with or without compounds from the chemical library, and harvested at different time points for flow cytometric analysis (18).
The dynamics of reduction of Rho123 fluorescence was monitored by flow cytometry.

The subject of the next data set is ConA cells. As to the kind of experiment: Drug sensitivity (growth inhibition) assay, ConA cells. In kind it is cell-based, mouse. The settings on record: ConA cells grown 72 hours with drug with or without Compound 102 (FIG. 6). Here is the method: Drug sensitivity assays. To estimate drug-mediated growth inhibition, 10^3 cells were plated per well of 96-well plates, and incubated with a range of concentrations of drugs added 24 hours after plating. […] After elution by 1% SDS solution, optical density was determined on a Multiscan Ascent reader (Lybsystems, Helsinki, Finland) at 650 nm.

The test system of another data set is KB-3-1 cells. As to the kind of experiment: Drug sensitivity assay, KB-3-1 cells (P-gp-negative). In kind it is cell-based, human. The conditions noted are these: P-gp-negative cell line KB-3-1. As to the method: Drug sensitivity assays. To estimate drug-mediated growth inhibition, 10^3 cells were plated per well of 96-well plates, and incubated with a range of concentrations of drugs added 24 hours after plating. After 5 to […] of drug treatment, plates were fixed and stained using 2% methylene blue solution in 50% methanol. After elution by 1% SDS solution, optical density was determined on a Multiscan Ascent reader (Lybsystems, Helsinki, Finland) at 650 nm.
(§1) To determine transporter specificity of the identified compounds, the compounds were tested on cells differing in the type of multidrug transporter expressed: KB-8-5-11 cells, (expressing P-gp), SW1753-A120 cells (expressing MRP1), and KB-3-1 (expressing neither of the above transporters and highly sensitive to drugs that are P-gp or MRP1 substrates).

The next data set relates to SW1753-A120 cells. The data set is described as follows: Drug sensitivity assay, SW1753-A120 cells (expressing MRP1). In kind it is cell-based. The settings on record: P-gp-negative. As to the method: as §1
A further data set concerns mouse ConA cells. The data set is described as follows: DMBA sensitivity of mouse cells. In kind it is cell-based. Here is the method: (§2) The effect of the identified compounds on DMBA sensitivity of mouse cells also was tested. It has been reported that ABC type transporters (e.g., P-gp) are involved in the efflux of polycyclic aromatic hydrocarbon carcinogens from cells. The effect of the identified compounds on sensitivity of mouse cells to 7,12-dimethylbenz[a]anthracene (DMBA) was determined. […].

The target of data set [2] is T1, P-gp (Homo sapiens, UniProt P08183). As to the kind of experiment: Drug resistance of mouse ConA cells expressing human P-gp (MDR1 cDNA transfection). In kind it is cell-based. The arrangement: expressed in transfected cells; host or cells: mouse fibroblasts, line ConA, transfected with MDR1 cDNA in LNL6 (Mo-MuLV LTR promoter). The source says: These cells are known to overexpress P-gp as result of MDR1 gene amplification. To completely eliminate possibility that some other ABC type transporter expressed in KB-8-5-11 cells might be responsible for this phenomenon, mouse fibroblasts, line ConA, permanently expressing human P-gp as a result of transfection with MDR1 cDNA-expressing plasmid LNL6 were used.
T1 sequence (P08183 whole entry): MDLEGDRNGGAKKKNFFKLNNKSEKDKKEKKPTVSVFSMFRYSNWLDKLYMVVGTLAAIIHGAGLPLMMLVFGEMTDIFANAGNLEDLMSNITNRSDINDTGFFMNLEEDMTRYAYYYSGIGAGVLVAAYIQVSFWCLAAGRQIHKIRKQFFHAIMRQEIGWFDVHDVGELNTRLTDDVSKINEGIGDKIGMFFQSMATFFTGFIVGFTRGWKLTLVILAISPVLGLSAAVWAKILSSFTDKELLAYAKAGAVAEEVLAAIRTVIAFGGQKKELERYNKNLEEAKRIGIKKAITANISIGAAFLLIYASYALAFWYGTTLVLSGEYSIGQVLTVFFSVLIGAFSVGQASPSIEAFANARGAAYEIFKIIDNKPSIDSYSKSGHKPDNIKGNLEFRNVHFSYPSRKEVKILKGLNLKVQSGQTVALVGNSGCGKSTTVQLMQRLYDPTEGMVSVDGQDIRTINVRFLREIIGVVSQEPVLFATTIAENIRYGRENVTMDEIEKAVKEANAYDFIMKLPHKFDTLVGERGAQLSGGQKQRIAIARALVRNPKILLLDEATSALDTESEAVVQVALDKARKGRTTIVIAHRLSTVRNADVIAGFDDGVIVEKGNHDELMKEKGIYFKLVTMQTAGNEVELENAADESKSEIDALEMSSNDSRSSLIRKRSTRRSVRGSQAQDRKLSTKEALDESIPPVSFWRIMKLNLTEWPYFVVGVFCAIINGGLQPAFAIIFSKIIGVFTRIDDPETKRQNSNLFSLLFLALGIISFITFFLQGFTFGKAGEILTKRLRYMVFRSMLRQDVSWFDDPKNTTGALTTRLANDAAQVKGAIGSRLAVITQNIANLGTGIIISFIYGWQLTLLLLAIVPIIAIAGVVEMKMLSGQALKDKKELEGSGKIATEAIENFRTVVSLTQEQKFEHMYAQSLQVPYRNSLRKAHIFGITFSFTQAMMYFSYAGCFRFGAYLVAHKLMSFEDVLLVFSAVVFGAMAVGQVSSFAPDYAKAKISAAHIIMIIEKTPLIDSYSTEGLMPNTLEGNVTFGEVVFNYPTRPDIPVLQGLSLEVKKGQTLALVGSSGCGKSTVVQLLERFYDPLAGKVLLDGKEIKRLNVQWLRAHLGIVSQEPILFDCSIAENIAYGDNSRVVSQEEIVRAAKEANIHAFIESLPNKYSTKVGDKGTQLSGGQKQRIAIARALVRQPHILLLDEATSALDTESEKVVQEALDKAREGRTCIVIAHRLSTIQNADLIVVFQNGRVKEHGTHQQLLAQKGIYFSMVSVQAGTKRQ

In data set [3] the target is T1, P-gp. The data set is described as follows: Rho123 accumulation in KB-8-5-11 cells. In kind it is cell-based. The arrangement: overexpressing P-gp as a result of MDR1 gene amplification (20); endogenous in cells; host or cells: KB-8-5-11 (multidrug resistant derivative of KB-3-1). The conditions noted are these: KB-8-5-11 cells overexpressing P-gp. An excerpt: (§3) Drug accumulation and efflux assay.
To test the effect of Compound 102 specifically on P-gp, a pair of human cell lines used as conventional models for studying P-gp, i.e., P-gp-negative KB-3-1 and its multidrug resistant derivative KB-8-5-11, overexpressing P-gp as a result of MDR1 gene amplification (20), were used.

For data set [4], the target named is T1, P-gp. As to the kind of experiment: P-gp-mediated efflux of taxol by KB-8-5-11 cells. In kind it is cell-based. The arrangement: overexpressing P-gp as a result of MDR1 gene amplification (20); endogenous in cells; host or cells: KB-8-5-11 (multidrug resistant derivative of KB-3-1).
Source text: as §3
Consistent with the drug sensitivity data, Compound 102 suppressed P-gp-mediated efflux of taxol by KB-8-5-11 cells, acting as a P-gp inhibitor for this drug (FIGS. 4 and 5). These observations indicate that Compound 102 should be defined as a modulator rather than a general activator of P-gp that acts by changing relative substrate specificity of the transporter.

A short description of data set [5]: DMBA sensitivity of mouse cells. In kind it is cell-based. The conditions noted are these: mouse fibroblasts, three days, without Compound 102; read-out: IC50 of DMBA cytotoxicity. As to the method:
as §2

For data set [6], the target named is T1, P-gp.
In data set [7] the target is T1, P-gp. The source holds these as a separate data set.

Molecules are shown by their SMILES.

Take `Cc1ccc(-c2cn3c4c(sc3n2)CCCC4)cc1` [Compound 102, 2-p-Tolyl-5,6,7,8-tetrahydro-benzo[d]imidazo[2,1-b]thiazole]: the “increase of efflux of Rho123 from cells preloaded with the dye” value in the data set on P-gp [1] is on record as “about 20 times”. Moreover, the “cell sensitivity to colcemide” value with ConA cells is reported as “no effect”. Moreover, in the data set with KB-3-1 cells, the “effect on drug sensitivity” value is on record as “No effect”. For the same compound, the “cell sensitivity to vinblastine” value with SW1753-A120 cells (MRP1-positive cells SW1753-A120 (FIG. 13)) was “no effect”. The “cell sensitivity to doxorubicin” value with SW1753-A120 cells (MRP1-positive cells SW1753-A120 (FIG. 16)) is given as “no effect”. In addition, the “protection of cells from cytotoxicity of DMBA” value with mouse ConA cells is given as “strongly protects”. In the data set with mouse ConA cells (mouse fibroblasts, 10 μM Compound 102), the “increase of natural level of resistance to DMBA” value is on record as “greater than 15 fold”. Also, the resistance to doxorubicin entry at P-gp [2] (mouse ConA fibroblasts expressing human P-gp (FIG. 10)) is “increased resistance”. For the same compound, the resistance to vinblastine entry at P-gp [2] (mouse ConA fibroblasts expressing human P-gp (data not shown)) is “decreased resistance”. Also, the Rho123 accumulation entry at P-gp [3] is “strongly decreased”. For the same compound, the “P-gp-mediated efflux of taxol” value at P-gp [4] is listed as “suppressed”.
By IC50 is commonly meant the midpoint of a concentration-inhibition curve. Turning to `Cc1c2ccccc2c(C)c2c1ccc1ccccc12` [DMBA, 7,12-dimethylbenz[a]anthracene], the IC50 at 3 days in [5] is 0.31 µM. For the same compound, the IC50 with mouse ConA cells (Mus musculus, Fibroblast, 72 h, read-out: IC50 of DMBA cytotoxicity) worked out at 5 µM.
For the compound `CC(=O)[C@H]1CC[C@H]2[C@@H]3CCC4=CC(=O)CC[C@]4(C)[C@H]3CC[C@]12C` [progesterone], at P-gp [6], the “effect on P-gp-mediated Rho123 efflux” value was “weak effect”. On P-gp [7], the “changes in cell cross resistance to P-gp substrates tested” value is recorded as “did not cause detectable changes”.
